Converted amounts (≈) assume the structure as drawn.
Key:
Assay type in all cases: functional
[1] = tested on: Staphylococcus aureus; test: Antibacterial activity against methicillin-sensitive Staphylococcus aureus 14-1
[2] = tested on: Enterococcus faecalis; test: Antibacterial activity against Enterococcus faecalis 14-3
[3] = tested on: Staphylococcus epidermidis; test: Antibacterial activity against methicillin-sensitive Staphylococcus epidermidis 14-1
[4] = tested on: Escherichia coli; test: Antibacterial activity against Escherichia coli 14-1
[5] = tested on: Staphylococcus aureus; test: Antibacterial activity against methicillin-sensitive Staphylococcus aureus 14-2
[6] = tested on: Staphylococcus aureus; test: Antibacterial activity against methicillin-resistant Staphylococcus aureus 14-1
[7] = tested on: Staphylococcus aureus; test: Antibacterial activity against methicillin-resistant Staphylococcus aureus 14-4
[8] = tested on: Staphylococcus epidermidis; test: Antibacterial activity against methicillin-resistant Staphylococcus epidermidis 14-1
[9] = tested on: Staphylococcus aureus; test: Antibacterial activity against methicillin-resistant Staphylococcus aureus 14-5
[10] = tested on: Enterococcus faecalis; test: Antibacterial activity against Enterococcus faecalis 14-1
[11] = tested on: Escherichia coli; test: Antibacterial activity against Escherichia coli 14-2 expressing extended-spectrum beta-lactamase
[12] = tested on: Staphylococcus epidermidis; test: Antibacterial activity against methicillin-resistant Staphylococcus epidermidis 14-4
[13] = tested on: Enterococcus faecalis; test: Antibacterial activity against Enterococcus faecalis 14-5
[14] = tested on: Staphylococcus epidermidis; test: Antibacterial activity against methicillin-sensitive Staphylococcus epidermidis 14-3
[15] = tested on: Staphylococcus aureus; test: Antibacterial activity against methicillin-resistant Staphylococcus aureus 14-2
[16] = tested on: Escherichia coli; test: Antibacterial activity against Escherichia coli 14-1 expressing extended-spectrum beta-lactamase
[17] = tested on: Escherichia coli; test: Antibacterial activity against Escherichia coli 14-2
[18] = tested on: Staphylococcus epidermidis; test: Antibacterial activity against methicillin-sensitive Staphylococcus epidermidis 14-2
[19] = tested on: Staphylococcus epidermidis; test: Antibacterial activity against methicillin-resistant Staphylococcus epidermidis 14-2
[20] = tested on: Staphylococcus epidermidis; test: Antibacterial activity against methicillin-resistant Staphylococcus epidermidis 14-3
[21] = tested on: Staphylococcus aureus; test: Antibacterial activity against methicillin-sensitive Staphylococcus aureus 14-3
[22] = tested on: Enterococcus faecalis; test: Antibacterial activity against Enterococcus faecalis 14-2
[23] = tested on: Staphylococcus aureus; test: Antibacterial activity against methicillin-sensitive Staphylococcus aureus 14-4

CCCC[C@H](CN(O)C=O)C(=O)N1CC2(CC2)C[C@H]1C(=O)Nc1nccc(-c2cccnc2)n1
MIC [1]: 0.25 µg/mL (≈ 0.536 µM) | MIC [2]: 1 µg/mL (≈ 2.14 µM) | MIC [3]: 0.125 µg/mL (≈ 0.268 µM) | MIC [4]: > 64 µg/mL | MIC [5]: 0.5 µg/mL (≈ 1.07 µM) | MIC [6]: 2 µg/mL (≈ 4.29 µM) | MIC [7]: 2 µg/mL (≈ 4.29 µM) | MIC [8]: 0.25 µg/mL (≈ 0.536 µM) | MIC [9]: 0.25 µg/mL (≈ 0.536 µM) | MIC [10]: 0.5 µg/mL (≈ 1.07 µM) | MIC [11]: > 64 µg/mL | MIC [12]: 0.5 µg/mL (≈ 1.07 µM) | MIC [13]: 0.5 µg/mL (≈ 1.07 µM) | MIC [14]: 0.25 µg/mL (≈ 0.536 µM) | MIC [15]: 0.5 µg/mL (≈ 1.07 µM) | MIC [16]: 2 µg/mL (≈ 4.29 µM) | MIC [17]: > 64 µg/mL | MIC [18]: 0.5 µg/mL (≈ 1.07 µM) | MIC [19]: 0.25 µg/mL (≈ 0.536 µM) | MIC [20]: 0.125 µg/mL (≈ 0.268 µM) | MIC [21]: 0.5 µg/mL (≈ 1.07 µM) | MIC [22]: 0.5 µg/mL (≈ 1.07 µM) | MIC [23]: 0.25 µg/mL (≈ 0.536 µM)

CCCC[C@H](CN(O)C=O)C(=O)N1CC2(CC2)C[C@H]1C(=O)Nc1ncccc1F
MIC [1]: 0.5 µg/mL (≈ 1.23 µM) | MIC [2]: 2 µg/mL (≈ 4.92 µM) | MIC [3]: 0.125 µg/mL (≈ 0.308 µM) | MIC [4]: > 64 µg/mL | MIC [5]: 0.5 µg/mL (≈ 1.23 µM) | MIC [6]: 0.5 µg/mL (≈ 1.23 µM) | MIC [7]: 0.5 µg/mL (≈ 1.23 µM) | MIC [8]: 0.25 µg/mL (≈ 0.615 µM) | MIC [9]: 0.25 µg/mL (≈ 0.615 µM) | MIC [10]: 2 µg/mL (≈ 4.92 µM) | MIC [11]: 64 µg/mL (≈ 157 µM) | MIC [12]: 0.5 µg/mL (≈ 1.23 µM) | MIC [13]: 2 µg/mL (≈ 4.92 µM) | MIC [14]: 0.25 µg/mL (≈ 0.615 µM) | MIC [15]: 0.5 µg/mL (≈ 1.23 µM) | MIC [16]: 2 µg/mL (≈ 4.92 µM) | MIC [17]: 64 µg/mL (≈ 157 µM) | MIC [18]: 0.25 µg/mL (≈ 0.615 µM) | MIC [19]: 0.25 µg/mL (≈ 0.615 µM) | MIC [20]: 0.125 µg/mL (≈ 0.308 µM) | MIC [21]: 0.5 µg/mL (≈ 1.23 µM) | MIC [22]: 2 µg/mL (≈ 4.92 µM) | MIC [23]: 0.5 µg/mL (≈ 1.23 µM)

CO/N=C(\C(=O)N[C@@H]1C(=O)N2C(C(=O)[O-])=CCS[C@H]12)c1csc(N)n1.[Na+] [CEFTIZOXIME SODIUM]
MIC [1]: 4 µg/mL | MIC [2]: > 128 µg/mL | MIC [3]: 32 µg/mL | MIC [4]: 4 µg/mL | MIC [5]: 4 µg/mL | MIC [6]: 128 µg/mL | MIC [7]: 128 µg/mL | MIC [8]: 128 µg/mL | MIC [9]: 64 µg/mL | MIC [10]: > 128 µg/mL | MIC [11]: 32 µg/mL | MIC [12]: 32 µg/mL | MIC [13]: > 128 µg/mL | MIC [14]: > 128 µg/mL | MIC [15]: 64 µg/mL | MIC [16]: 1 µg/mL | MIC [17]: 4 µg/mL | MIC [18]: 64 µg/mL | MIC [19]: 128 µg/mL | MIC [21]: 4 µg/mL | MIC [22]: > 128 µg/mL | MIC [23]: 2 µg/mL

Cc1nc(NNC(=O)[C@H](CC2CCCC2)CN(O)C=O)c(F)c(N2CCN3CCOC[C@@H]3C2)n1 [LANOPEPDEN]
MIC [1]: 1 µg/mL (≈ 2.09 µM) | MIC [2]: 16 µg/mL (≈ 33.4 µM) | MIC [3]: 0.125 µg/mL (≈ 0.261 µM) | MIC [4]: 64 µg/mL (≈ 133 µM) | MIC [5]: 1 µg/mL (≈ 2.09 µM) | MIC [6]: 2 µg/mL (≈ 4.17 µM) | MIC [7]: 2 µg/mL (≈ 4.17 µM) | MIC [8]: 0.125 µg/mL (≈ 0.261 µM) | MIC [9]: 0.25 µg/mL (≈ 0.521 µM) | MIC [10]: 8 µg/mL (≈ 16.7 µM) | MIC [11]: > 64 µg/mL | MIC [12]: 0.25 µg/mL (≈ 0.521 µM) | MIC [13]: > 64 µg/mL | MIC [14]: 0.06 µg/mL (≈ 0.125 µM) | MIC [15]: 1 µg/mL (≈ 2.09 µM) | MIC [16]: 1 µg/mL (≈ 2.09 µM) | MIC [17]: 64 µg/mL (≈ 133 µM) | MIC [18]: 0.25 µg/mL (≈ 0.521 µM) | MIC [19]: 0.06 µg/mL (≈ 0.125 µM) | MIC [20]: 0.015 µg/mL (≈ 0.0313 µM) | MIC [21]: 1 µg/mL (≈ 2.09 µM) | MIC [22]: 16 µg/mL (≈ 33.4 µM) | MIC [23]: 1 µg/mL (≈ 2.09 µM)

C[C@H]1COc2c(N3CCN(C)CC3)c(F)cc3c(=O)c(C(=O)O)cn1c23.C[C@H]1COc2c(N3CCN(C)CC3)c(F)cc3c(=O)c(C(=O)O)cn1c23.O [LEVOFLOXACIN]
MIC [1]: 16 µg/mL | MIC [2]: 2 µg/mL | MIC [3]: 0.5 µg/mL | MIC [5]: 0.5 µg/mL | MIC [6]: 128 µg/mL | MIC [7]: > 128 µg/mL | MIC [8]: 16 µg/mL | MIC [9]: > 128 µg/mL | MIC [10]: 2 µg/mL | MIC [11]: 64 µg/mL | MIC [12]: 16 µg/mL | MIC [13]: 2 µg/mL | MIC [14]: 0.5 µg/mL | MIC [15]: > 128 µg/mL | MIC [16]: 32 µg/mL | MIC [18]: 0.5 µg/mL | MIC [19]: 16 µg/mL | MIC [20]: 16 µg/mL | MIC [21]: 32 µg/mL | MIC [22]: 4 µg/mL | MIC [23]: 16 µg/mL

CO[C@H]1/C=C/O[C@@]2(C)Oc3c(C)c(O)c4c(O)c(c(/C=N/N5CCN(C)CC5)c(O)c4c3C2=O)NC(=O)/C(C)=C\C=C\[C@H](C)[C@H](O)[C@@H](C)[C@@H](O)[C@@H](C)[C@H](OC(C)=O)[C@@H]1C [RIFAMPIN]
MIC [1]: < 0.008 µg/mL | MIC [2]: 2 µg/mL (≈ 2.43 µM) | MIC [3]: < 0.008 µg/mL | MIC [4]: 2 µg/mL (≈ 2.43 µM) | MIC [5]: 0.008 µg/mL (≈ 0.00972 µM) | MIC [6]: > 128 µg/mL | MIC [7]: > 128 µg/mL | MIC [9]: > 128 µg/mL | MIC [10]: 1 µg/mL (≈ 1.22 µM) | MIC [11]: 2 µg/mL (≈ 2.43 µM) | MIC [12]: < 0.008 µg/mL | MIC [13]: 4 µg/mL (≈ 4.86 µM) | MIC [14]: 0.008 µg/mL (≈ 0.00972 µM) | MIC [15]: > 128 µg/mL | MIC [16]: 2 µg/mL (≈ 2.43 µM) | MIC [17]: 2 µg/mL (≈ 2.43 µM) | MIC [18]: < 0.008 µg/mL | MIC [20]: 0.008 µg/mL (≈ 0.00972 µM) | MIC [21]: 0.008 µg/mL (≈ 0.00972 µM) | MIC [22]: 2 µg/mL (≈ 2.43 µM) | MIC [23]: < 0.008 µg/mL
